According to US20260242356A1, “BICYCLIC HETEROCYCLIC AMIDE INHIBITORS OF NAv1.8 FOR THE TREATMENT OF PAIN” (priority 2022, published 2026):

Target: T1, human NaV sodium channel α-subunit NaV 1.8 (Homo sapiens, UniProt Q9Y5Y9)
T1 construct: transfected with the full-length cDNA coding for the appropriate human NaV sodium channel α-subunit NaV 1.8; expressed in transfected cells; host or cells: HEK293 cells
Experiment: NaV inhibition assay, whole-cell patch-clamp (HEKA EPC 9 amplifier)
Assay type: cell-based
Method: Electrophysiology experiments were performed on Human Embryonic Kidney 293 cells (HEK) or Chinese hamster ovary cells (CHO) transfected with the full-length cDNA coding for the appropriate human NaV sodium channel α-subunit NaV 1.8. Similarly, experiments are performed on Human Embryonic Kidney 293 cells (HEK) or Chinese hamster ovary cells (CHO) transfected with the full-length cDNA coding for the appropriate human NaV sodium channel α-subunit, including NaV 1.7, NaV 1.6, NaV 1.5, and NaV 1.4.
Sodium currents were measured using the patch-clamp technique in the whole-cell configuration with a HEKA EPC 9 amplifier (HEKA Elektronik Dr. Schulze GmbH, Germany) or can be measured using an IonFlux 16 automated patch clamp system (Fluxion Biosciences, South San Francisco, USA) as previously described by Moran. See, Moran O, Picollo A, Conti F (2003) Tonic and phasic guanidinium toxin-block of skeletal muscle Na channels expressed in Mammalian cells, Biophys J 84(5):2999-3006. For manual patch-clamp experiments, borosilicate glass micropipettes (Sutter Instruments, Novato, CA) were pulled to a tip diameter yielding a resistance of 1.0-2.0 MΩ in the working solutions. The composition of intracellular solution was (in mM): CsF 125, EGTA 10, HEPES 10, NaCl 10, and the pH was adjusted to 7.2 with CsOH. The composition of extracellular solution was (in mM): NaCl 135, KCl 4.5, CaCl2 2, MgCl2 1, HEPES 10, and the pH was adjusted to 7.4 with NaOH. For human NaV 1.8, 0.3-1 μM tetrodotoxin (TTX) was added to the extracellular solution to inhibit native TTX-sensitive current. Peak currents were generally between 0.5-20 nA.
Lyophilized stock of each test article was stored at −20° C., solubilized in DMSO (maximum final concentration 1%) and diluted to the desired concentration with the external solution prior to recording. Current measurements were recorded under continuous perfusion, controlled by syringe pump addition.
The output of the EPC 9 patch-clamp amplifier was filtered with a built-in low-pass, four-pole Bessel filter having a cutoff frequency of 10 kHz and sampled at 20-50 kHz. For both manual and automated recordings, the membrane was kept at a holding potential of between −120 and −80 mV. Pulse stimulation and data acquisition were controlled with the Pulse software (HEKA Elektronik Dr. Schulze GmbH, Germany) or the IonFlux software (Fluxion Biosciences, South San Francisco, USA). All measurements were performed at room temperature (about 20-22° C.). Recordings were made at least 5 min after establishing the whole-cell and voltage-clamp configuration to allow for stabilization of the voltage-dependent properties of the channels. Currents were elicited by 10-50 ms step depolarizations from a holding potential to a value between −40 and +10 mV. Peak currents after channel activation were recorded. […] Data were fit to a four-parameter logistic equation with the Hill slope set to 1 to determine IC50 values and expressed as mean.
For Table 1 and Table 2, all data were measured in HEK cells. Column 1 provides IC50 data for NaV 1.8 as measured using the patch-clamp technique in the whole-cell configuration with a HEKA EPC 9 amplifier, where +++ indicates an IC50 of less than or equal to 20 nM, ++ indicates an IC50 of greater than 20 nM but less that or equal to 100 nM, and + indicates an IC50 of greater than 100 nM but less that or equal to […]. ND means not detectable. NT means not tested.

T1 sequence (Q9Y5Y9 whole entry): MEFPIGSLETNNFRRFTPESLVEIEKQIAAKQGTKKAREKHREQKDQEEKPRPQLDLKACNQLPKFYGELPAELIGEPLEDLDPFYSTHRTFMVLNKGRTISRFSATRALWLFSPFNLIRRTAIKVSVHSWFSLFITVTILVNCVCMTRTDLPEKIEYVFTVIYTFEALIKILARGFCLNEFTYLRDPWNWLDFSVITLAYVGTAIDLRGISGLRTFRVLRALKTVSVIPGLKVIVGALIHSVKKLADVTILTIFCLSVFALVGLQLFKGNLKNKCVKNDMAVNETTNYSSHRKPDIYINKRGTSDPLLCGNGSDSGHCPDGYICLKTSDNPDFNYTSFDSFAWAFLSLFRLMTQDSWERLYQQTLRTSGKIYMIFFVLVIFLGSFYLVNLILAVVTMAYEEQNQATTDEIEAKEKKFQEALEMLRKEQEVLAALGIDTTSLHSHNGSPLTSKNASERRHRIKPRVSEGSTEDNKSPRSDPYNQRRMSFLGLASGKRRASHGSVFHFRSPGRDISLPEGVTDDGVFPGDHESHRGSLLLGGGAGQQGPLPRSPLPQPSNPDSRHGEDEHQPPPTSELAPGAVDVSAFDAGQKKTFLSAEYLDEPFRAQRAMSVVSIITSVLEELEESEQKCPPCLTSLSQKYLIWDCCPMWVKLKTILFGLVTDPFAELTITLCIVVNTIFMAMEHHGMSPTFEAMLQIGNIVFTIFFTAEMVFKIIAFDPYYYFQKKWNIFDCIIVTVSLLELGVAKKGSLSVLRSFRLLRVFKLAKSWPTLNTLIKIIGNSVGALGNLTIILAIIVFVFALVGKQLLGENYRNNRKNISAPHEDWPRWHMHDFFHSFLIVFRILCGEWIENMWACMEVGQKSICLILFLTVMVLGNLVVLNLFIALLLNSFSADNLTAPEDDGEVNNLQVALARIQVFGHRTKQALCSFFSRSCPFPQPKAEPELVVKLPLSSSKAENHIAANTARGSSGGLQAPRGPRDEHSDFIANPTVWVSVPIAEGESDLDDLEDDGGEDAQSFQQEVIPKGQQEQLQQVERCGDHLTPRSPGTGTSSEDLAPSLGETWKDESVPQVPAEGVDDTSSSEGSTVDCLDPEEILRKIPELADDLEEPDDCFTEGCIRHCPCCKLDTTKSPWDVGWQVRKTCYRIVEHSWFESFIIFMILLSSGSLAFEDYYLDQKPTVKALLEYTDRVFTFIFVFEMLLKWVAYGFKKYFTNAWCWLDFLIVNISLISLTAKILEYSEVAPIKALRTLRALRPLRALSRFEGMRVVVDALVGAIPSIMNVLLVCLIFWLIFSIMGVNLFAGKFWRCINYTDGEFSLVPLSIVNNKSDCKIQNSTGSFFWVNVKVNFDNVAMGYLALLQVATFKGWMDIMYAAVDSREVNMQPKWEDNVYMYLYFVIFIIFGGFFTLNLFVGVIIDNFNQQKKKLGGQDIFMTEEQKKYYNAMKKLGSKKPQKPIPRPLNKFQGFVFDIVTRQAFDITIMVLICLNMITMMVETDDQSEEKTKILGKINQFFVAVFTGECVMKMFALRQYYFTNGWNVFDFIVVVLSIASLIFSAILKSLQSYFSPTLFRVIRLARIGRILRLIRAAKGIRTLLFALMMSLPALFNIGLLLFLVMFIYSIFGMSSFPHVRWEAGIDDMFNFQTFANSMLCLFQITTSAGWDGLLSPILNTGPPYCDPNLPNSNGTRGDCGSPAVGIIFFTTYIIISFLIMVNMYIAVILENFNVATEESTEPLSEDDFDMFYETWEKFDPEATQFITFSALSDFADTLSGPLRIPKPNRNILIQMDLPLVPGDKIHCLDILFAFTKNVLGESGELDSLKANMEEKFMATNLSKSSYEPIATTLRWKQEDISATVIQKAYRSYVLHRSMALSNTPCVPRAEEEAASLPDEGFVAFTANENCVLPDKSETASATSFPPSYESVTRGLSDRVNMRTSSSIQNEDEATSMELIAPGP

| Structure (SMILES) | NaV1.8 IC50 (nM) (HEK cells transfected with human NaV 1.8, whole-cell patch-clamp, 0.3-1 μM TTX in extracellular solution, room temperature) | IC50 [nM] |
| --- | --- | --- |
| NS(=O)(=O)c1cccc(NC(=O)c2cc3cccnc3nc2N2CCCC(F)(F)CC2)c1 [Compound 19, 2-(4,4-difluoroazepan-1-yl)-N-(3-sulfamoylphenyl)-1,8-naphthyridine-3-carboxamide] | + (+ indicates an IC50 of greater than 100 nM but less that or equal to 1.5 M) |  |
| COc1ccc2nc(N3CCCC(F)(F)CC3)c(C(=O)Nc3cccc(S(N)(=O)=O)c3)cc2c1 [Compound 11, 2-(4,4-difluoroazepan-1-yl)-6-methoxy-N-(3-sulfamoylphenyl)quinoline-3-carboxamide] |  | < 20 |
| NS(=O)(=O)c1cccc(NC(=O)c2cc3ccncc3nc2N2CCCC(F)(F)CC2)c1 [Compound 15, 2-(4,4-difluoroazepan-1-yl)-N-(3-sulfamoylphenyl)-1,7-naphthyridine-3-carboxamide] |  | < 20 |
| NS(=O)(=O)c1cccc(NC(=O)c2cc3cc(C(F)(F)F)ccc3nc2N2CCCC(F)(F)CC2)c1 [Compound 17] |  | < 20 |
| NS(=O)(=O)c1cccc(NC(=O)c2cc3ccccc3nc2N2CCCC(F)(F)CC2)c1 [Compound 2, 2-(4,4-difluoroazepan-1-yl)-N-(3-sulfamoylphenyl)quinoline-3-carboxamide] |  | < 20 |
| CS(=N)(=O)c1cccc(NC(=O)c2nc3ccccc3nc2N2CCCC(F)(F)CC2)c1 (stereo not drawn) [Compound 7, 3-(4,4-difluoroazepan-1-yl)-N-(3-(S-methylsulfonimidoyl)phenyl)quinoxaline-2-carboxamide] |  | 20 to 100 |
| NS(=O)(=O)c1cccc(NC(=O)c2cc3cc(F)c(F)cc3nc2N2CCCC(F)(F)CC2)c1 [Compound 10, 2-(4,4-difluoroazepan-1-yl)-6,7-difluoro-N-(3-sulfamoylphenyl)quinoline-3-carboxamide] |  | 20 to 100 |
| NS(=O)(=O)c1cccc(NC(=O)c2cc3c(nc2N2CCCC(F)(F)CC2)CCCC3)c1 [Compound 18, 2-(4,4-difluoroazepan-1-yl)-N-(3-sulfamoylphenyl)-5,6,7,8-tetrahydroquinoline-3-carboxamide] |  | 20 to 100 |
| CS(=N)(=O)c1cccc(NC(=O)c2cc3ccccc3nc2N2CCCC(F)(F)CC2)c1 (stereo not drawn) [Compound 1, 2-(4,4-difluoroazepan-1-yl)-N-(3-(S-methylsulfonimidoyl)phenyl)quinoline-3-carboxamide] |  | < 20 |
| CC1CN(c2nc3ccccc3cc2C(=O)Nc2cccc(S(N)(=O)=O)c2)CCC1(F)F (stereo not drawn) [Compound 5, 2-(4,4-difluoro-3-methylpiperidin-1-yl)-N-(3-sulfamoylphenyl)quinoline-3-carboxamide] |  | < 20 |
| NS(=O)(=O)c1cccc(NC(=O)c2cc3cc(Cl)ccc3nc2N2CCCC(F)(F)CC2)c1 [Compound 12, 6-chloro-2-(4,4-difluoroazepan-1-yl)-N-(3-sulfamoylphenyl)quinoline-3-carboxamide] |  | < 20 |
| NC(=O)c1cccc(NC(=O)c2nc3ccccc3nc2N2CCCC(F)(F)CC2)c1 [Compound 14, N-(3-carbamoylphenyl)-3-(4,4-difluoroazepan-1-yl)quinoxaline-2-carboxamide] |  | 20 to 100 |
| NS(=O)(=O)c1cccc(NC(=O)c2cc3ccc(F)cc3nc2N2CCCC(F)(F)CC2)c1 [Compound 28, 2-(4,4-difluoroazepan-1-yl)-7-fluoro-N-(3-sulfamoylphenyl)quinoline-3-carboxamide] |  | < 20 |
| NC(=O)c1cccc(NC(=O)c2cc3ccccc3nc2N2CCCC(F)(F)CC2)c1 [Compound 4, N-(3-carbamoylphenyl)-2-(4,4-difluoroazepan-1-yl)quinoline-3-carboxamide] |  | < 20 |
| NS(=O)(=O)c1cccc(NC(=O)c2nc3ccccc3nc2N2CCCC(F)(F)CC2)c1 [Compound 8, 3-(4,4-difluoroazepan-1-yl)-N-(3-sulfamoylphenyl)quinoxaline-2-carboxamide] |  | 20 to 100 |
| COc1ccc2cc(C(=O)Nc3cccc(S(N)(=O)=O)c3)c(N3CCCC(F)(F)CC3)nc2c1 [Compound 16, 2-(4,4-difluoroazepan-1-yl)-7-methoxy-N-(3-sulfamoylphenyl)quinoline-3-carboxamide] |  | 20 to 100 |
| NS(=O)(=O)c1cccc(NC(=O)c2cc3cc(F)ccc3nc2N2CCCC(F)(F)CC2)c1 [Compound 9, 2-(4,4-difluoroazepan-1-yl)-6-fluoro-N-(3-sulfamoylphenyl)quinoline-3-carboxamide] |  | 20 to 100 |
| Nc1noc2ccc(NC(=O)c3cc4ccccc4nc3N3CCCC(F)(F)CC3)cc12 [Compound 3, N-(3-aminobenzo[d]isoxazol-5-yl)-2-(4,4-difluoroazepan-1-yl)quinoline-3-carboxamide] |  | < 20 |
| NS(=O)(=O)c1cccc(NC(=O)c2cc3cnccc3nc2N2CCCC(F)(F)CC2)c1 [Compound 20, 2-(4,4-difluoroazepan-1-yl)-N-(3-sulfamoylphenyl)-1,6-naphthyridine-3-carboxamide] |  | 20 to 100 |
| NS(=O)(=O)c1cccc(NC(=O)c2cc3ccc(Cl)cc3nc2N2CCCC(F)(F)CC2)c1 [Compound 13, 7-chloro-2-(4,4-difluoroazepan-1-yl)-N-(3-sulfamoylphenyl)quinoline-3-carboxamide] |  | 20 to 100 |
| CS(=O)(=O)c1cccc(NC(=O)c2nc3ccccc3nc2N2CCCC(F)(F)CC2)c1 [Compound 6, 3-(4,4-difluoroazepan-1-yl)-N-(3-methanesulfonylphenyl)quinoxaline-2-carboxamide] |  | < 20 |
